This is an account of results in PubChem BioAssay (NCI).

SMILES strings stand for the structures. Where “and” joins values, the source holds several entries; their conditions need not be identical. Equal entries are not always repeated.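 Protocol summary: plate cells (96-well), add compound at 5 concentrations, incubate 48 h, interpolate endpoints linearly. GI50 marks 50% less growth. TGI: total growth inhibition.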

Common to all, as to test: NCI tumour cell line growth inhibition, 48 h
The subject of assay [1] is A549 NSCLC.
In assay [2] the test system is RPMI-8226 leukemia.
The test system of assay [3] is SF-539 CNS.
Assay [4] has as its system SK-MEL-5 melanoma.
In assay [5] the test system is SNB-75 CNS.
Assay [6] relates to TK-10 renal.
The test system of assay [7] is UACC-62 melanoma.
In assay [8] the test system is UO-31 renal.
The subject of assay [9] is DU-145 prostate.
Assay [10] has as its system NCI/ADR-RES ovarian.

As to `O=C1C2c3[nH]c4ccccc4c3[C@@H]3CCCCCCCCCCC3C2C(=O)N1c1ccccc1` (stereo partly drawn), the TGI in assay [1] was 62.4 µM; in assay [2], above 100 µM; in assay [3], 24.3 µM; in assay [4], above 100 µM; in [5] it was 6.44 µM; in assay [6], 44.3 µM. The TGI is 59.2 µM in assay [7] and above 100 µM in assay [8].
With `Cn1c2ccccc2c(=Nc2ccccc2)c2c3ccccc3[nH]c21`, the GI50 in [9] was 1.74 µM; in assay [10], 6.75 µM; in [2], 1.08 µM; in assay [3] it was 1.17 µM; in [4] it was 0.787 µM; in assay [6] it was 1.03 µM. Moreover, the GI50 in [7] was 0.696 µM; in assay [8], 1.93 µM. Also, the TGI in [9] was 4.36 µM; in [10] it was 61.2 µM; in assay [2], 2.56 µM; in assay [3] it was 2.46 µM; in assay [4], 2.06 µM; in assay [6], 2.2 µM. In addition, the figures for the TGI in [7] and in [8] were 2.01 µM and above 100 µM, respectively.
As to `Nc1[nH]c(=O)ncc1F`, the TGI in assay [1], in assay [9], in assay [10], in assay [2], in assay [3] and in assay [4] was above 100 µM throughout. The TGI in assay [6], in [7] and in assay [8] was above 100 µM in each case.
On to `C[Si](C)(C)/C=C/CCC(C=O)(CCCl)c1ccccc1` (stereo not drawn), for which the TGI was 98.4 µM in [1]; above 100 µM in [3]; 33.9 µM in assay [4]; 96.6 µM in assay [5]; above 100 µM in [6]; 55.5 µM in assay [7]. In assay [8], this molecule yielded a TGI above 100 µM.
For `CC1=NNC(=NCCN(C)C)C/C1=C/c1ccccc1Cl`, the TGI in assay [1], in [3], in [4], in assay [5], in assay [6] and in assay [7] was above 100 µM each time. The molecule further gave a TGI in [8] above 100 µM.
On to `CC(C)[C@@H]1C=C(c2ccccc2)c2ccccc2C1C(C#N)(C#N)C(C)C` (stereo partly drawn), for which the TGI in [1], in assay [2], in assay [3], in assay [4], in assay [5] and in assay [6] was above 100 µM throughout. Further, the TGI in assay [7] and in assay [8] was above 100 µM throughout.
Take `Nc1nc2c(ncn2C2OC(CO)C(O)C2N)c(=O)[nH]1` (stereo not drawn): the TGI in assay [1], in [3], in [5], in assay [6], in assay [7] and in [8] was above 100 µM in each case.
With `COC(=O)C[CH](C(=O)OC)[Ge]([CH3])([CH3])[S]c1ccccc1` (stereo not drawn), the GI50 in assay [1] is 43.9 µM; in [2], 17.1 µM; in assay [3], 22.1 µM; in assay [4], 33.1 µM; in [5], 22.1 µM; in assay [6], 38.9 µM. The GI50 in assay [7] was 15.8 µM; in assay [8], 7.06 µM. Also, the TGI in [1] is above 100 µM; in assay [2] it was 56.7 µM; in [3], 39.7 µM; in assay [4] it was above 100 µM; in [5], 72.2 µM; in assay [6], above 100 µM. The TGI worked out at 36.2 µM in [7] and 21 µM in assay [8].
For the molecule `COc1ccc(SC2c3cc(OC)c(OC)cc3Oc3nc(N)c(C#N)c(N)c32)cc1` (stereo not drawn), the GI50 is 1.73 µM in assay [9]; 0.354 µM in assay [2]; 1.38 µM in [3]; 1.5 µM in [4]; 1.31 µM in [5]; 1.63 µM in [6]. Also, the GI50 in [7] was 0.449 µM; in assay [8], 1.34 µM. Besides, the TGI in assay [9] amounted to 3.11 µM; in assay [2] it was 1.81 µM; in assay [3] it was 2.68 µM; in [4] it was 2.82 µM; in [5], 2.62 µM; in assay [6] it was 3.01 µM. Moreover, the TGI in [7] turned out to be 1.74 µM; in assay [8], 2.61 µM.
As for `CCCCCCCCCCCC(=O)OCC1OC(n2cc(F)c(=O)[nH]c2=O)C(NC(=O)OCc2ccccc2)C(O)C1O` (stereo not drawn), the TGI in assay [1] is 43.2 µM; in assay [2] it was 53.5 µM; in assay [3] it was 49.4 µM; in assay [4], 34.6 µM; in assay [5], 28.1 µM; in [6] it was above 100 µM. Moreover, the TGI in [7] was found to be 38.6 µM; in assay [8] it was 93 µM.
Regarding `OCC(O)C(O)c1nn(-c2ccccc2)c2nc3cc(Cl)c(Cl)cc3nc12` (stereo not drawn), the TGI in assay [1] was 57.4 µM; in assay [2], above 100 µM; in [3], 71 µM; in [4], above 100 µM; in assay [5] it was 52 µM; in [6], 48.4 µM. Also, the TGI was above 100 µM in [7] and 63.5 µM in [8].
For `NCCCCCS(=O)(=O)O`, the TGI in assay [1], in [3], in [4], in assay [5], in [6] and in [7] was above 100 µM throughout. Moreover, the TGI in assay [8] is above 100 µM.
Take `COc1ccc2cccc(C(=O)c3ccc(C)c4c3CCC4)c2c1`: the TGI in assay [1] was above 100 µM; in assay [4], 36.8 µM; in assay [5], above 100 µM; in assay [6], above 100 µM; in assay [7] it was 56.5 µM; in assay [8] it was 82.4 µM.
Regarding `C/C1=C\[C@H](C)C[C@H](C)OC(=O)C[C@H](c2ccc(O)cc2)NC(=O)[C@@H](Cc2c(Br)[nH]c3ccccc23)N(C)C(=O)[C@H](C)NC(=O)[C@@H](C)C1`, the GI50 in assay [1] is 0.0318 µM; in [10], 0.0706 µM; in assay [2], below 0.0176 µM; in assay [3], 0.238 µM; in assay [4], 0.0451 µM; in [5], 0.0168 µM. Also, the GI50 is 0.0982 µM in [6], 0.0414 µM in assay [7] and 0.0968 µM in [8]. Moreover, the TGI is 2.02 µM in [10]; 0.622 µM and 0.0655 µM in [3]; 0.578 µM and 0.391 µM in assay [4]; 0.175 µM and 0.0335 µM in assay [5]; 0.428 µM and 0.26 µM in [6]; 0.9 µM and 1.44 µM in assay [7]. Besides, in assay [8], the TGI was 0.351 µM and 0.238 µM.
